Assay results reported in patent US20220193047A1, “METHODS OF ENHANCING RADIOTHERAPY USING FERROPTOSIS INDUCERS AS RADIOSENSITIZERS” (THE TRUSTEES OF COLUMBIA UNIVERSITY IN THE CITY OF NEW YORK, priority 2019, published 2022).

Experiments:
[1] = system: HT-1080 cells; experiment: Cell Titer Glo cell viability assay with radiation; assay type: cell-based; conditions: HT-1080, 4 Gy radiation for 24 h
Description: HT-1080 cells were plated at 1,000 cells per well in white 96-well plates (100 uL per well) in technical duplicates. The cells were then treated with vehicle (DMSO), Ferrostatin-1, DFO, Z-VAD-FMK or Necrostatin-1S and incubated overnight. […] After another 24 h, 100 uL of 50% Cell Titer Glo (Promega) 50% cell culture medium was added to each well and incubated at room temperature with shaking for 15 min. Luminescence was measured using a Victor X5 plate reader (PerkinElmer). Experiments were performed three independent times with different passages for each cell line.

[2] = system: reduced glutathione (GSH) in HT-1080 cells; experiment: Reduced glutathione measurement in cells; assay type: cell-based; conditions: HT-1080, irradiated cells (2 or 6 Gy, 24 hours) co-treated with 2 μM IKE
Description: Cystine taken up by system xc^− is reduced to cysteine, a building block in the biosynthesis of glutathione. […] Using a fluorometric GSH probe, we observed that treatment with 2 or 6 Gy radiation for 24 hours depleted GSH in a dose-dependent manner in HT-1080 cells (FIG. 2E). […] Indeed, the decrease in colony formation of HT-1080 cells following 2 or 4 Gy radiation was rescued by either glutathione methyl ester or N-acetylcysteine, which is a biological precursor to glutathione (FIG. 9).

[3] = assay type: in vivo; conditions: 40 mg/kg IKE i.p. 14 days, with or without 6 Gy radiation
[4] = system: TM00219 patient-derived xenograft tumors; experiment: Patient-derived xenograft study in mice (TM00219 lung adenocarcinoma); assay type: in vivo; conditions: 40 mg/kg i.p. daily for 14 days, NSG mice
Description: The experiment was conducted according to the same protocol as the HT-1080 tumor xenograft study, with the exception that a single dose of radiation (sham or 6 Gy) was delivered to the tumor on day 1 of the experiment.
Finally, the effect of ferroptosis-inducing system xc^− inhibitors, in combination with radiation, was tested on a patient-derived xenograft (PDX) model of lung adenocarcinoma, which is another type of cancer commonly treated with radiation therapy. NSG mice engrafted with a human lung adenocarcinoma tumor (TM00219) were evaluated.

[5] = system: HT-1080 xenograft tumors; experiment: HT-1080 tumor xenograft study in mice; conditions: 40 mg/kg IKE i.p. daily for 14 days
Description: The injections were repeated daily for 14 days. […] For the sorafenib experiment, the formulation used was 40 mg/kg sorafenib in 5% DMSO, 20% ethanol in water containing 30% w/v cyclodextrin. […] Tumor size was measured daily using calipers and mouse weight was measured daily.
The efficacy of the combined treatment regimen of radiation and ferroptosis inducer was evaluated in an in vivo tumor model. […] Athymic nude mice were implanted with subcutaneous HT-1080 fibrosarcoma cells to form xenograft tumors.

[6] = system: MDA in HT-1080 xenograft tumor tissue; experiment: MDA immunohistochemistry on paraffin-embedded tumor sections; assay type: in vivo, mice; conditions: tumors resected at day 14
Description: Tumor tissue was fixed in 4% paraformaldehyde (PFA) for 24 h at 4° C. followed by washing three times with PBS. The samples were fixed in paraffin. Six series of […] sections were obtained with a sliding microtome. The serial sections were then mounted on gelatin-coated slide. The paraffin-embedded tissue sections were deparaffinized with xylene three times, 5 min each, followed by rehydrating in 100%, 90%, 70%, and 50% ethanol, two washes 5 min each, then rinsed with distilled water. Antigen retrieval was performed in sodium citrate buffer, pH 6.0, 95-100° C. for 10 min. Sections were then rinsed in PBST, 2 min each. A hydrophobic barrier pen was used to draw a circle on each slide. The slides were permeabilized with PBS/0.4% Triton X-100 twice before non-specific-binding blocking by incubating the sections with 10% goat serum (ThermoFisher 50197Z) for 30 minutes at room temperature. […] All images were captured on a Zeiss LSM 700 confocal microscope with constant laser intensity for all analyzed samples. The intensity above threshold of the fluorescent signal of the bound antibodies was analyzed using NIH ImageJ software.
Next, malondialdehyde (MDA) levels, as a biomarker for ferroptosis, were measured in tumor tissue using immunohistochemistry on fixed and paraffin-embedded tumor samples resected at day 14 post-treatment (FIG. 6B).

[7] = system: lipid species in HT-1080 cells; experiment: Mass spectrometry-based untargeted lipidomics; assay type: cell-based
Description: Homogenized samples were transferred to fresh glass tubes containing 850 mL of cold methyl-tertbutyl ether (MTBE) and vortex-mixed for 30 sec. To enhance extraction efficiency of lipids, the samples were incubated for one hour at 4° C. on an orbital shaker. Afterwards, 200 mL of cold water was added to each sample, and incubated for 20 min on ice before centrifugation at 3,000 rpm for 20 min at 4° C. The organic layer was collected followed by drying under a gentle stream of nitrogen gas on ice and stored at −80° C. until UPLC-MS analysis. The protein pellet was used to measure protein concentration for normalization using Bio-Rad protein assay. The samples were re-constituted in a solution containing 2-propanol/acetonitrile/water (4:3:1, v/v/v) containing mixture of internal standard (PLASH® LIPIDOMIX® Mass Spec Standard, Avanti Polar Lipids, INC.) for further UPLC-MS analysis. A quality control (QC) sample was prepared by combining 40 mL of each sample to assess the reproducibility of the features through the runs.
Chromatographic separation of extracted lipids was carried out at 55° C. on ACQUITY UPLC CSH C18 Column, (130 Å, 1.7 μm, 2.1 mm×100 mm) over a 20-min gradient elution. Mobile phase A consisted of ACN/water (60:40, v/v) and mobile phase B was 2-propanol/ACN/water (85:10:5, v/v/v) both containing 10 mM ammonium acetate and 0.1% acetic acid. […]

SMILES	Cell viability after radiation (ATP-based luciferase assay) [1]	Levels of reduced glutathione [2]	Tolerability (weight loss) [3]	Tumor growth, combination with radiation vs all other groups ([4]; 6 Gy on day one)	Tumor growth, drug alone vs vehicle only [4]	Tumor volume, IKE plus radiation ([5]; 6 Gy on days 2 and 4)	Tumor volume, IKE alone ([5]; athymic nude mice)	MDA signal in tumors, IKE and radiation vs vehicle [6]	MDA signal in tumors, IKE only vs vehicle [6]	Abundance of 17 lipid species (FA 16:1, lysophospholipids, diacylglycerols) ([7]; HT-1080, 5 μM IKE for 12 h)	Abundance of 17 lipid species (FA 16:1, lysophospholipids, diacylglycerols) ([7]; HT-1080, 5 μM IKE for 12 h plus 6 Gy radiation for 24 h)
CCOC(=O)c1ccc(NC2CCCCC2)c(N)c1 [ferrostatin-1]	rescued from death	–	–	–	–	–	–	–	–	–	–
CC(C)Oc1ccc(C(=O)Cn2ccnc2)cc1-n1c(CN2CCN(C(=O)COc3ccc(Cl)cc3)CC2)nc2ccccc2c1=O [IKE, imidazole ketone erastin]	–	further decreased	well tolerated	significant tumor growth inhibition	significant tumor control	enhanced the effects of radiation in reducing tumor growth	not strongly effective	Significantly elevated MDA signal	No significant differences	increased significantly	even larger increases
